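Cells were grown in 96-well plates and exposed to each compound for 48 hours at five concentrations; endpoints were interpolated linearly between bracketing concentrations, or set to the highest concentration if not reached. GI50 marks 50% less growth.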 Activity calls are given as the source filed them. No stated cut-off is given here; in the data, active = GI50 up to about 1.1 µM and inactive = higher.
Key:
Assay in all cases: growth of human tumour cells (NCI), 48 h
RXF 393 = system: RXF 393
U-251 = system: U-251
Malme-3M = system: Malme-3M
KM12 = system: KM12
OVCAR-8 = system: OVCAR-8
UACC-257 = system: UACC-257
LOX IMVI = system: LOX IMVI
SNB-19 = system: SNB-19
OVCAR-4 = system: OVCAR-4
NCI-H226 = system: NCI-H226
SK-OV-3 = system: SK-OV-3
NCI-H23 = system: NCI-H23
MOLT-4 = system: MOLT-4
NCI-H460 = system: NCI-H460
OVCAR-3 = system: OVCAR-3
HCT-15 = system: HCT-15

SMILES | GI50 (RXF 393) | GI50 (U-251) | GI50 (Malme-3M) | GI50 (KM12) | GI50 (OVCAR-8) | GI50 (UACC-257) | GI50 (LOX IMVI) | GI50 (SNB-19) | GI50 (OVCAR-4) | GI50 (NCI-H226) | GI50 (SK-OV-3) | GI50 (NCI-H23) | GI50 (MOLT-4) | GI50 (NCI-H460) | GI50 (OVCAR-3) | GI50 (HCT-15)
O=C1Nc2cc(Cl)ccc2N=CC1NC(=O)C(c1ccccc1)c1ccccc1Cl (stereo unspecified) | > 100 µM (inactive) | > 100 µM (inactive) | > 100 µM (inactive) | > 100 µM (inactive) | > 100 µM (inactive) | > 100 µM (inactive) | > 100 µM (inactive) | > 100 µM (inactive) | > 100 µM (inactive) | > 100 µM (inactive) | > 100 µM (inactive) | > 100 µM (inactive) | > 100 µM (inactive) | 57.9 µM (inactive) | > 100 µM (inactive) | > 100 µM
O=C(CO[N+](=O)[O-])OCC(=O)c1ccccc1 | > 100 µM (inactive) | > 100 µM (inactive) | > 100 µM (inactive) | > 100 µM (inactive) | > 100 µM (inactive) | > 100 µM (inactive) | > 100 µM (inactive) | > 100 µM (inactive) | > 100 µM (inactive) | > 100 µM (inactive) | > 100 µM (inactive) | > 100 µM (inactive) | > 100 µM (inactive) | > 100 µM (inactive) | > 100 µM (inactive) | > 100 µM
CCOc1ccc(NC(=O)/C(Cc2nc3ccccc3nc2O)=N\O)cc1 | > 100 µM (inactive) | > 100 µM (inactive) | > 100 µM (inactive) | > 100 µM (inactive) | > 100 µM (inactive) | > 100 µM (inactive) | > 100 µM (inactive) | > 100 µM (inactive) | > 100 µM (inactive) | – | > 100 µM (inactive) | > 100 µM (inactive) | > 100 µM (inactive) | > 100 µM (inactive) | > 100 µM (inactive) | > 100 µM
COc1cccc(-c2cc(C(=O)Nc3ccc(Cl)cc3)nc(N)n2)c1 | 39.4 µM (inactive) | 60.8 µM (inactive) | 57.7 µM (inactive) | 43.7 µM (inactive) | 98.9 µM (inactive) | 81.1 µM (inactive) | 66.1 µM (inactive) | 70.8 µM (inactive) | > 100 µM (inactive) | > 100 µM (inactive) | 61 µM (inactive) | 75 µM (inactive) | 38.7 µM (inactive) | 36.8 µM (inactive) | 35.3 µM (inactive) | 41.5 µM
COC(=O)c1c/c(=N\NC(=O)CC(=O)Nc2ccc(C)cc2)c2ccccc2o1 | > 100 µM (inactive) | > 100 µM (inactive) | > 100 µM (inactive) | > 100 µM (inactive) | > 100 µM (inactive) | > 100 µM (inactive) | > 100 µM (inactive) | > 100 µM (inactive) | > 100 µM (inactive) | > 100 µM (inactive) | > 100 µM (inactive) | > 100 µM (inactive) | > 100 µM (inactive) | > 100 µM (inactive) | > 100 µM (inactive) | > 100 µM
CCNC(=O)C#CC(=O)NCC | > 10 µM (inactive) | > 91.4 µM (inactive) | > 10 µM (inactive) | > 100 µM (inactive) | > 100 µM (inactive) | > 100 µM (inactive) | > 83.9 µM (inactive) | > 100 µM (inactive) | > 100 µM (inactive) | > 10 µM (inactive) | > 100 µM (inactive) | > 100 µM (inactive) | > 100 µM (inactive) | > 100 µM (inactive) | > 100 µM (inactive) | > 42.6 µM
Cn1c(=O)c2[nH]cnc2n(CC(N)=O)c1=O | – | > 100 µM (inactive) | > 100 µM (inactive) | > 100 µM (inactive) | > 100 µM (inactive) | – | – | > 100 µM (inactive) | – | – | > 100 µM (inactive) | > 100 µM (inactive) | > 100 µM (inactive) | > 100 µM (inactive) | > 100 µM (inactive) | > 100 µM
Nn1c(S)nnc1NNC(=O)C(=O)Nc1cc(Cl)c(Cl)cc1Cl | > 100 µM (inactive) | > 100 µM (inactive) | > 100 µM (inactive) | > 100 µM (inactive) | > 100 µM (inactive) | > 100 µM (inactive) | > 100 µM (inactive) | > 100 µM (inactive) | > 100 µM (inactive) | > 100 µM (inactive) | > 100 µM (inactive) | > 100 µM (inactive) | – | > 100 µM (inactive) | > 100 µM (inactive) | > 100 µM
C[C@]12CCC(=O)C=C1CC[C@@H]1[C@@H]2CC[C@]2(C)C(=O)NC(=O)C[C@@H]12 | > 100 µM (inactive) | > 100 µM (inactive) | > 100 µM (inactive) | > 100 µM (inactive) | > 100 µM (inactive) | > 100 µM (inactive) | > 100 µM (inactive) | > 100 µM (inactive) | > 100 µM (inactive) | > 100 µM (inactive) | > 100 µM (inactive) | > 100 µM (inactive) | > 100 µM (inactive) | > 100 µM (inactive) | > 100 µM (inactive) | > 100 µM
CCN(CC)CC(C(=O)Nc1c(C)cccc1C)/C(C)=N\NC(=O)C[N+](C)(C)C (stereo unspecified) | > 100 µM (inactive) | > 100 µM (inactive) | > 100 µM (inactive) | > 100 µM (inactive) | > 100 µM (inactive) | > 100 µM (inactive) | > 100 µM (inactive) | > 100 µM (inactive) | > 100 µM (inactive) | > 100 µM (inactive) | > 100 µM (inactive) | > 100 µM (inactive) | > 100 µM (inactive) | > 100 µM (inactive) | > 100 µM (inactive) | > 100 µM
COc1ccc(-c2cc(-c3ccccc3)c(C#N)c(=O)[nH]2)cc1 | > 100 µM (inactive) | > 100 µM (inactive) | > 100 µM (inactive) | > 100 µM (inactive) | > 100 µM (inactive) | > 100 µM (inactive) | > 100 µM (inactive) | > 100 µM (inactive) | > 100 µM (inactive) | > 100 µM (inactive) | > 100 µM (inactive) | > 100 µM (inactive) | > 100 µM (inactive) | > 100 µM (inactive) | > 100 µM (inactive) | > 100 µM
CC(C)C(Nc1c2ccccc2[n+]([O-])c2ccccc12)C(=O)O (stereo unspecified) | – | > 100 µM (inactive) | 28.1 µM (inactive) | > 100 µM (inactive) | 53.2 µM (inactive) | 66.2 µM (inactive) | 50.9 µM (inactive) | > 100 µM (inactive) | 65.8 µM (inactive) | 35.6 µM (inactive) | > 100 µM (inactive) | 36 µM (inactive) | 10 µM (inactive) | > 100 µM (inactive) | > 100 µM (inactive) | 45.9 µM
COC(=O)c1ccc(OCc2ccc3oc(=O)c(-c4ccccc4)nc3c2)cc1 | – | > 100 µM (inactive) | 59.2 µM (inactive) | > 100 µM (inactive) | > 100 µM (inactive) | > 100 µM (inactive) | > 100 µM (inactive) | > 100 µM (inactive) | > 100 µM (inactive) | > 100 µM (inactive) | – | 71.3 µM (inactive) | 22.9 µM (inactive) | > 100 µM (inactive) | 44.9 µM (inactive) | > 100 µM
COc1ccc2c(CCNS(=O)(=O)c3ccccc3)c(C(C)=O)[nH]c2c1[N+](=O)[O-] | – | > 100 µM (inactive) | – | > 100 µM (inactive) | 65.2 µM (inactive) | > 100 µM (inactive) | > 100 µM (inactive) | > 100 µM (inactive) | 28.4 µM (inactive) | 43.3 µM (inactive) | – | > 100 µM (inactive) | > 100 µM (inactive) | > 100 µM (inactive) | > 100 µM (inactive) | > 100 µM
N/N=C(\CC1OC(=O)c2ccccc21)c1ccco1 (stereo unspecified) | > 100 µM (inactive) | – | > 100 µM (inactive) | > 100 µM (inactive) | – | > 100 µM (inactive) | 80 µM (inactive) | > 100 µM (inactive) | > 100 µM (inactive) | > 100 µM (inactive) | > 100 µM (inactive) | > 100 µM (inactive) | > 100 µM (inactive) | > 100 µM (inactive) | > 100 µM (inactive) | > 100 µM
O=C(CC(=O)Nc1cccc(Cl)c1)NNCC(=O)Nc1nnc(-c2ccccc2)s1 | – | 34 µM (inactive) | – | > 100 µM (inactive) | 20.8 µM (inactive) | 99.1 µM (inactive) | 43.2 µM (inactive) | 36 µM (inactive) | 2.46 µM (inactive) | 22.9 µM (inactive) | 26.4 µM (inactive) | 94.6 µM (inactive) | 34.9 µM (inactive) | 11.1 µM (inactive) | 32.7 µM (inactive) | 39.3 µM
CN1CCN(CCNc2ccc(CO)c3sc4ccccc4c(=O)c23)CC1 | – | 3.11 µM (inactive) | 11.5 µM (inactive) | 10.9 µM (inactive) | 9.38 µM (inactive) | 15.2 µM (inactive) | – | 21 µM (inactive) | 10.5 µM (inactive) | 13.2 µM (inactive) | – | 12.9 µM (inactive) | 3.15 µM (inactive) | 4.34 µM (inactive) | 8.18 µM (inactive) | 6.32 µM
Cc1cc(=O)oc2cc(OCc3nc4ccccc4c(=O)n3-c3ccccc3)ccc12 | 34 µM (inactive) | 54.7 µM (inactive) | > 100 µM (inactive) | > 100 µM (inactive) | 45.1 µM (inactive) | – | > 100 µM (inactive) | 27.5 µM (inactive) | > 100 µM (inactive) | > 100 µM (inactive) | 53.6 µM (inactive) | > 100 µM (inactive) | > 100 µM (inactive) | > 100 µM (inactive) | > 100 µM (inactive) | > 100 µM
CCOC(=O)C(=Cc1ccc(C(=O)OC)cc1)C(=O)OCC | – | 1.66 µM (inactive) | 1.8 µM (inactive) | 2.92 µM (inactive) | 2.98 µM (inactive) | – | 1.73 µM (inactive) | 2.39 µM (inactive) | 3.78 µM (inactive) | 2.08 µM (inactive) | 13.6 µM (inactive) | 1.76 µM (inactive) | 2.61 µM (inactive) | 21.1 µM (inactive) | 3.41 µM (inactive) | 2.37 µM

Reference: ChEMBL document CHEMBL1201862, “PubChem BioAssay data set” (2004)
